Measured values: US20240390340A1 (INCYTE CORPORATION, priority 2023, published 2024)
Read-outs that look alike come from different tables or passages of the source. Blank lines part the entries; values can stand above or below the molecule they belong to.

Tests used:
[1] = biological target: KRAS G12V (Homo sapiens, UniProt P01116, G12V); assay: GDP-GTP exchange assay (bodipy-GDP/GppNHp, SOS1), KRAS G12V; assay type: biochemical
Description: (§1) The inhibitor potency of the exemplified compounds was determined in a fluorescence based guanine nucleotide exchange assay, which measures the exchange of bodipy-GDP (fluorescently labeled GOP) for GppNHp (Non-hydrolyzable GTP analog) to generate the active state of KRAS in the presence of SOS1 (guanine nucleotide exchange factor). Inhibitors were serially diluted in DMSO and a volume of 0.1 μL was transferred to the wells of a black low volume 384-well plate. 5 μL/well volume of bodipy-loaded KRAS G12D diluted to 2.5 nM in assay buffer (25 mM Hepes pH 7.5, 50 mM NaCl, 10 mM MgCl2 and 0.01% Brij-35) was added to the plate and pre-incubated with inhibitor for 4 h at r.t. Appropriate controls (enzyme with no inhibitor or with a G12D inhibitor) were included on the plate. The exchange was initiated by the addition of a 5 μL/well volume containing 1 mM GppNHp and 300 nM SOS1 in assay buffer. The 10 μL/well reaction concentration of the bodipy-loaded KRAS G12D, GppNHp, and SOS1 were 2.5 nM, 500 μM, and 150 nM, respectively. The reaction plates were incubated at r.t. for 2 h, a time estimated for complete GDP-GTP exchange in the absence of inhibitor. For the KRAS G12V mutant, similar guanine nucleotide exchange assays were used with 2.5 nM as final concentration for the bodipy loaded KRAS proteins and 3 h incubation after adding GppNHp-SOS1 mixture. A cyclic peptide described to selectively bind G12D mutant (Sakamoto et al., BBRC 484.3 (2017), 605-611) or internal compounds with confirmed binding were used as positive controls in the assay plates. Fluorescence intensities were measured on a PheraStar plate reader instrument (BMG Labtech) with excitation at 485 nm and emission at 520 nm.
(§2) Either GraphPad prism or Genedata Screener SmartFit was used to analyze the data. The IC50 values were derived by fitting the data to a four parameter logistic equation producing a sigmoidal dose-response curve with a variable Hill coefficient.
(§3) The symbol “†” indicates IC50≤100 nM, “††” indicates IC50>100 nM but ≤1 μM; and “†††” indicates IC50 is >1 μM but ≤5 μM, “††††” indicates IC50 is >5 μM but ≤10 μM. “NA” indicates IC50 not available.

[2] = biological target: KRAS G12D (Homo sapiens, UniProt P01116, G12D); assay: GDP-GTP exchange assay (bodipy-GDP/GppNHp, SOS1), KRAS G12D; assay type: biochemical
Description: as §1, §2, §3

[3] = KRAS G12V mutant, value for the most potent isomer quoted for certain compounds, read-out: G12V (KRAS G12V exchange assay IC50)
[4] = bodipy-loaded KRAS G12D 2.5 nM, 4 h pre-incubation, value for the most potent isomer quoted for certain compounds, read-out: G12D (KRAS G12D exchange assay IC50)

Chain of KRAS G12V (P01116 1-188 isoform P01116-2 G12V): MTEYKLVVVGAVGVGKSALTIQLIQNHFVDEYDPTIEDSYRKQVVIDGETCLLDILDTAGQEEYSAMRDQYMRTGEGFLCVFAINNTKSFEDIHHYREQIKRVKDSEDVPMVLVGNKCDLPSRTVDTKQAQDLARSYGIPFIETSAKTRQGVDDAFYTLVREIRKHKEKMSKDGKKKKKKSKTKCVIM
Chain of KRAS G12D (P01116 1-188 isoform P01116-2 G12D): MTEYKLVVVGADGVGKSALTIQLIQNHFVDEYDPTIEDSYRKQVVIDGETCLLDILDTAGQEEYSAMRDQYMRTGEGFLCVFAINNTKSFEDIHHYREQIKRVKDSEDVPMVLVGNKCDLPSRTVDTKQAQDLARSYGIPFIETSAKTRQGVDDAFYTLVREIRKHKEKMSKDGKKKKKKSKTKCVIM

IC50 [1, 3]: ≤ 100 nM | IC50 [2, 4]: ≤ 100 nM
SMILES: Cc1nc2c(F)c(-c3cccc(Cl)c3Cl)c(CCC#N)cc2c2c1cc([C@H]1C[C@H](OCc3ccc(F)cc3)CN1C(=O)C1CC1)n2[C@H]1[C@H]2CN[C@@H]1C2 [Example 251]

IC50 [1, 3]: ≤ 100 nM | IC50 [2, 4]: ≤ 100 nM
SMILES: Cc1nc2c(F)c(-c3cccc(Cl)c3Cl)c(CCC#N)cc2c2c1cc([C@H]1C[C@H](OCc3ccccn3)[C@@H](C)N1C(=O)C1CC1)n2[C@H]1[C@H]2CN[C@@H]1C2 [Example 243]

IC50 [1, 3]: ≤ 100 nM | IC50 [2, 4]: ≤ 100 nM
SMILES: Cc1nc2c(F)c(-c3cccc(Cl)c3Cl)c(CCC#N)cc2c2c1cc([C@H]1C[C@H](Oc3ccncc3)CN1C(=O)C1CC1)n2[C@H]1[C@H]2CN[C@@H]1C2 [Example 193]

IC50 [1, 3]: ≤ 100 nM | IC50 [2, 4]: ≤ 100 nM
SMILES: Cc1nc2c(F)c(-c3cccc(Cl)c3Cl)c(CCC#N)cc2c2c1cc([C@H]1C[C@H](OCC3CCCCC3)CN1C(=O)C1CC1)n2[C@H]1[C@H]2CN[C@@H]1C2 [Example 86]

IC50 [1, 3]: ≤ 100 nM | IC50 [2, 4]: ≤ 100 nM
SMILES: Cc1nc2c(F)c(-c3cccc(Cl)c3Cl)c(CCC#N)cc2c2c1cc([C@H]1C[C@H](OCC3CCOCC3)CN1C(=O)C1CC1)n2[C@H]1[C@H]2CN[C@@H]1C2 [Example 413]

IC50 [1, 3]: ≤ 100 nM | IC50 [2, 4]: ≤ 100 nM
SMILES: Cc1nc2c(F)c(-c3cccc(Cl)c3Cl)c(CCC#N)cc2c2c1cc([C@H]1C[C@H](OCc3cccnc3N)CN1C(=O)C1CC1)n2[C@H]1[C@H]2CN[C@@H]1C2 [Example 149]

IC50 [1, 3]: ≤ 100 nM | IC50 [2, 4]: ≤ 100 nM
SMILES: CN1CC=C(c2nc3c(F)c(-c4cccc(Cl)c4Cl)c(CCC#N)cc3c3c2cc([C@H]2C[C@H](OCc4c(F)cccc4F)CN2C(=O)C2CC2)n3[C@H]2[C@H]3CN[C@@H]2C3)CC1 [Example 219]

The next lines start with the molecule.

SMILES: COc1ccnc(O[C@H]2C[C@H](c3cc4c(C)nc5c(F)c(-c6cccc(Cl)c6Cl)c(CCC#N)cc5c4n3[C@H]3[C@H]4CN[C@@H]3C4)N(C(=O)C3CC3)C2)c1 [Example 328]
IC50 [1, 3]: ≤ 100 nM | IC50 [2, 4]: ≤ 100 nM

SMILES: Cc1nc2c(F)c(-c3cccc(Cl)c3Cl)c(CCC#N)cc2c2c1cc([C@H]1C[C@H](Oc3cn(C)nc3C(F)F)CN1C(=O)C1CC1)n2[C@H]1[C@H]2CN[C@@H]1C2 [Example 299]
IC50 [1, 3]: ≤ 100 nM | IC50 [2, 4]: ≤ 100 nM

SMILES: Cc1nc2c(F)c(-c3cccc(Cl)c3Cl)c(CCC#N)cc2c2c1cc([C@H]1C[C@H](n3cc(C4(C)CCCC4)nn3)CN1C(=O)C1CC1)n2[C@H]1[C@H]2CN[C@@H]1C2 [Example 386]
IC50 [1, 3]: ≤ 100 nM | IC50 [2, 4]: ≤ 100 nM

SMILES: Cc1nc2c(F)c(-c3cccc(Cl)c3Cl)c(CCC#N)cc2c2c1cc([C@H]1C[C@H](Oc3cccc(C(=O)N4CCCC4)c3)CN1C(=O)C1CC1)n2[C@H]1[C@H]2CN[C@@H]1C2 [Example 223]
IC50 [1, 3]: ≤ 100 nM | IC50 [2, 4]: ≤ 100 nM

SMILES: Cc1nc2c(F)c(-c3cccc(Cl)c3Cl)c(CCC#N)cc2c2c1cc([C@H]1C[C@H](OC3CCc4ccccc43)CN1C(=O)C1CC1)n2[C@H]1[C@H]2CN[C@@H]1C2 (some centres unmarked) [Example 337]
IC50 [1, 3]: 100 to 1000 nM | IC50 [2, 4]: ≤ 100 nM

SMILES: CCc1cccc(O[C@H]2C[C@H](c3cc4c(C)nc5c(F)c(-c6cccc(Cl)c6Cl)c(CCC#N)cc5c4n3[C@H]3[C@H]4CN[C@@H]3C4)N(C(=O)C3CC3)C2)c1 [Example 167]
IC50 [1, 3]: ≤ 100 nM | IC50 [2, 4]: ≤ 100 nM

SMILES: Cc1nc(CO[C@H]2C[C@H](c3cc4c(C)nc5c(F)c(-c6cccc(Cl)c6Cl)c(CCC#N)cc5c4n3[C@H]3[C@H]4CN[C@@H]3C4)N(C(=O)C3CC3)C2)cs1 [Example 107]
IC50 [1, 3]: ≤ 100 nM | IC50 [2, 4]: ≤ 100 nM

SMILES: Cc1nc2c(F)c(-c3cccc(Cl)c3Cl)c(CCC#N)cc2c2c1cc([C@H]1C[C@H](OC(F)(F)c3ccccc3)CN1C(=O)C1CC1)n2[C@H]1[C@H]2CN[C@@H]1C2 [Example 79, 3-(1-((1R,4R,5S)-2-Azabicyclo[2.1.1]hexan-5-yl)-2-((2R,4S)-1-(cyclopropanecarbonyl)-4-(difluoro(phenyl)methoxy)pyrrolidin-2-yl)-7-(2,3-dichlorophenyl)-6-fluoro-4-methyl-1H-pyrrolo[3,2-c]quinolin-8-yl)propanenitrile]
IC50 ([1]; Table H, column G12V, for compounds isolated as several atropisomers/diastereoisomers the value for the most potent isomer is quoted, read-out: KRAS G12V exchange assay IC50): ≤ 100 nM | IC50 ([2]; Table H, column G12D, for compounds isolated as several atropisomers/diastereoisomers the value for the most potent isomer is quoted, read-out: KRAS G12D exchange assay IC50): ≤ 100 nM

SMILES: Cc1nc2c(F)c(-c3cccc(Cl)c3Cl)c(CCC#N)cc2c2c1cc([C@H]1C[C@H](OCc3ccn(C)n3)CN1C(=O)C1CC1)n2[C@H]1[C@H]2CN[C@@H]1C2 [Example 101]
IC50 [1, 3]: ≤ 100 nM | IC50 [2, 4]: ≤ 100 nM
